Experimental data reported in the NIST ThermoML archive (doi:10.1021/acs.jced.6b00290).
Numbers after ± are expanded uncertainties.

Assay: refractive index (Na D-line) (dimensionless); wn = mass fraction of the nth substance listed
Settings: 333.15 K, 100 kPa, Liquid, Standard Abbe refractometry

Row | SMILES | refractive index (w1 = 0.5241) | refractive index (w1 = 0.3525)
1 | [Br-].[Br-].[Mg+2] [magnesium bromide (MgBr2)] + O | 1.4594 ± 0.0004 | 
2 | O=S(=O)([O-])[O-].[Mg+2] [magnesium sulfate] + O |  | 1.3957 ± 0.0004
